Tested on: B16-F10 mouse melanoma tumor
Assay: Therapeutic whole tumor lysate vaccine in B16F10 tumor-bearing mice
Assay type: in vivo, mouse (C57BL/6J)
Experimental: Ex vivo whole tumor lysate preparation. Syngeneic whole tumor lysates (WTL) were prepared from tumors explants of unimmunized tumor-bearing mice. Briefly, tumors from unimmunized mice bearing a tumor 10-12 mm of size were mechanically disaggregated using gentle MACS dissociator (Miltenyi Biotec) and enzymatically digested using the tumor Dissociation Kit (Miltenyi Biotec) following the manufacturer's protocol. After digestion, tumor cell suspensions were washed with PBS and passed through 70 um and then 30 um filters. Single cell suspension was depleted of CD45+ cells using anti-CD45 TILs microbeads (Miltenyi Biotec). Tumor cells were then counted and resuspended at 1×10^7 cells/ml then lysed by 3-4 cycles of freeze-thawing. The lysed cells were further disrupted by repeatedly passing the material through an 18G, then 21G, and finally 25G needles. Lysate was filtered again through 70 um and 30 um cell strainers and stored in aliquots at −80° C. until use. WTL were used for immunotherapy at a concentration equivalent to 5.75E5 tumor cells per mouse.
Immunotherapeutic immunization and tumor challenges. For immunizations in the context of an immunotherapeutic approach, C57BL/6J were injected on the left flank with 5×10^4 B16F10 cells. […] Mice received two boost injections at 7-day intervals.
Quantification and statistical analysis. In in vivo studies, n refers to the number of animals per condition from one or two independent experiments. Statistical differences were calculated by using unpaired two-tailed Student's t test, or one-way ANOVA with Tukey post-test. Dependent samples were analyzed with paired t tests. Statistical significance for experiments with more than two groups was tested with two-way ANOVA with Tukey multiple comparison test correction. All experiments were analyzed using Prism 7 (GraphPad Software). Graphical data was shown as mean values with error bars indicating the SD or SEM. P values of <0.05 (*), <0.01 (**) or <0.001(***);%0.0001 (****) indicated significant differences between groups.

[1] = WTL 80 ug + R848 100 ug + 65 ug lipid in […]% KP407, 2 boosts every 7 days

SMILES: CCCCCCCCCCCCCCCCCCCCCC(=O)OC[C@@H](O)COP(=O)([O-])OCC[N+](C)(C)C [22:0 LYSO PC, 1-behenoyl-2-hydroxy-sn-glycero-3-phosphocholine]
- survival of tumor-bearing mice (in words) [1]: survived longer
- tumor growth kinetics (in words) [1]: delayed tumor growth kinetics
- benefit of vaccination (in words) (tumor lysate + R848 + lipid in PBS): No significant benefit
